The assay deals with Tyrosine-protein kinase JAK2 (Homo sapiens) (UniProt O60674). As to the kind of experiment: JAK2V617F kinase, IRF1 reporter and Ba/F3 cytotoxicity panel, late-stage follow-up, HEL and Ba/F3 cells (AID 2165).

Several values for one entry are separate records, joined by “and”; a condition that tells them apart may be missing. Identical values can stand only once. Activity calls are given as the source filed them. Cut-off read from the data, not from the text of the source: active = IC50 below about 9 µM; inactive = the rest. Bounds are passed on as bounds.

Chain of Tyrosine-protein kinase JAK2 (Homo sapiens) (O60674 whole entry, looked up, change not shown): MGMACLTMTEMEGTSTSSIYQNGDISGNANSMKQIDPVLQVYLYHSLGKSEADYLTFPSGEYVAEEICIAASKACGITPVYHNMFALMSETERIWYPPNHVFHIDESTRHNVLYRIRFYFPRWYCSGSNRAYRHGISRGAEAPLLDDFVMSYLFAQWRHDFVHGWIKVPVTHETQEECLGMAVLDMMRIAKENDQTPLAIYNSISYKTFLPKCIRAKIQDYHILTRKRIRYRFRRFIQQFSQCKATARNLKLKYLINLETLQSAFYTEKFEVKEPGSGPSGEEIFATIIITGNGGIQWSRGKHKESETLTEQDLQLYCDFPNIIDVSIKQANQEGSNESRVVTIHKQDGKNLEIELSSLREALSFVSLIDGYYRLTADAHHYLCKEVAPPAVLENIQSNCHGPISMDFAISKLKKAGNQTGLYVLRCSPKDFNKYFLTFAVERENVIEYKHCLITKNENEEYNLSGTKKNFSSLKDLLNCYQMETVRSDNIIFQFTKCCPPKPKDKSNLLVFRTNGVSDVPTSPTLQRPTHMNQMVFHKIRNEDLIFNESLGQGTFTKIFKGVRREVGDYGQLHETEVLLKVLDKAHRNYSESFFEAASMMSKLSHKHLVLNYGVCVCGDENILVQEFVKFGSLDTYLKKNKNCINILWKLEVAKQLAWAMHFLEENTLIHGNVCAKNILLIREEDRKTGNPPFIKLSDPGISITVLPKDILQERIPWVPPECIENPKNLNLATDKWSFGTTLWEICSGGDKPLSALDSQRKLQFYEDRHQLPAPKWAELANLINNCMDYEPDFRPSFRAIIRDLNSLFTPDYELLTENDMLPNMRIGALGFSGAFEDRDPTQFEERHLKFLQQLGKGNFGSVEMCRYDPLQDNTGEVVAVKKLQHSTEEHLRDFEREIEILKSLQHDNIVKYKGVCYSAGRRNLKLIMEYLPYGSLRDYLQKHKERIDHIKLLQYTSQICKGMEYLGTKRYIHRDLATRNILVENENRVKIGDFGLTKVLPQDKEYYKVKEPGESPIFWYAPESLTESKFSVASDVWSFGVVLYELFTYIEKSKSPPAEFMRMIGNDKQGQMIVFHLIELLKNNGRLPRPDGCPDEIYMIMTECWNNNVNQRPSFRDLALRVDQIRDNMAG

As for `Clc1ccc(-n2nnnc2Sc2ncnc3sccc23)cc1`, the IC50 runs as follows: (Ba/F3, irf1 reporter) 1.19 µM; (HEL, irf1 reporter) 23.3 µM.

On to `COc1cc2c(cc1OC)-c1cc(N3CCCc4ccccc43)nc(=O)n1CC2`, for which the IC50 is, setting by setting: (Ba/F3, irf1 reporter) > 40 µM (inactive); (HEL, irf1 reporter) > 40 µM (inactive).

Turning to `C#CCSc1nsc(SCC#C)c1C#N`, the IC50 reads like this: (Ba/F3, irf1 reporter) 6.71 µM; (HEL, irf1 reporter) > 40 µM (inactive).

For the molecule `Cc1[nH]c(=O)c(C(=O)C=Cc2ccc(C(C)C)cc2)c2c1CCCC2`, the IC50 reads like this: (Ba/F3, irf1 reporter) 0.84 µM; (HEL, irf1 reporter) 6.33 µM; (JAK2V617F) 2.29 µM.

For the molecule `COc1cc2ncnc(Nc3cccc(Br)c3)c2cc1OC`, the IC50 (Ba/F3, irf1 reporter) was 1.31 µM; the IC50 (HEL, irf1 reporter) was 3.16 µM; the IC50 (JAK2V617F) is 4.94 µM.

As to `CC(C)(C)/C(O)=C/c1nc2cc(Cl)ccc2oc1=O`, the IC50 is 4.13 µM (Ba/F3, irf1 reporter) and 12.6 µM (HEL, irf1 reporter).

For `Cc1cccc(OCC(=O)Nc2ccccc2F)c1`, the IC50 runs as follows: (HEL, irf1 reporter) > 40 µM (inactive); (JAK2V617F) > 40 µM (inactive).

Regarding `CCC(C)c1ccc(OCC(=O)Nc2cc(C)ccc2O)cc1` (configuration not stated), for the setting “JAK2V617F”, the IC50 was 33.2 µM.

Turning to `O=C1C=CCC(/C=C/c2ccccc2)O1` (configuration not stated), the IC50 by setting is: (Ba/F3, irf1 reporter) 7.41 µM; (HEL, irf1 reporter) 2.05 µM.

For `Cc1ccc(NC(=O)C(=Cc2ccc(C(=O)O)cc2)C(=O)Nc2ccc(C)cc2C)c(C)c1`, the concentration for half-maximal inhibition (IC50) reads like this: (Ba/F3, irf1 reporter) 2.9 µM; (HEL, irf1 reporter) 2.8 µM.

Consider `c1ccc2c(CN3CCCCCC3)c[nH]c2c1`, for which the IC50 is 14.3 µM (Ba/F3, irf1 reporter) and 15.9 µM (HEL, irf1 reporter).

Turning to `COc1ccccc1-c1nnc(Sc2nc([N+](=O)[O-])nn2C)o1`, the IC50 reads like this: (Ba/F3, irf1 reporter) 35.5 µM; (HEL, irf1 reporter) 13.6 µM.

For the molecule `COc1ccc2nc(C)cc(Sc3nc4ccccc4s3)c2c1`, the IC50 (Ba/F3, irf1 reporter) is 2.98 µM and the IC50 (HEL, irf1 reporter) was 11 µM.

`CS(=O)(=O)c1nc(-c2ccco2)cc(C(F)(F)F)n1`: the IC50 reads like this: (Ba/F3, irf1 reporter) 0.869 µM; (HEL, irf1 reporter) 7.42 µM.

As to `Cc1[nH]c(=O)c(C(=O)/C=C/c2ccccc2F)c2c1CCCC2`, the IC50 is, setting by setting: (Ba/F3, irf1 reporter) 6.42 µM and 1.07 µM; (HEL, irf1 reporter) 3.87 µM and 0.79 µM; (JAK2V617F) 0.45 µM.

Consider `Cc1[nH]c(=O)c(C(=O)C=Cc2cccc(Br)c2)c2c1CCCC2`, for which the IC50 reads like this: (Ba/F3, irf1 reporter) 0.59 µM; (HEL, irf1 reporter) 1.13 µM; (JAK2V617F) 0.55 µM.

Take `CCCc1nc2ccccc2c(=O)n1/N=C/c1ccc(O)c(O)c1`: the IC50 (Ba/F3, irf1 reporter) is 2.13 µM and the IC50 (HEL, irf1 reporter) was 13.1 µM.

On to `Cc1cc(C)cc(NC(=O)COc2cccc(C)c2)c1`, for which the IC50 (JAK2V617F) was > 40 µM (inactive).

As to `COc1cc2ncnc(Nc3ccc(F)c(F)c3)c2cc1OC`, the IC50 by setting is: (HEL, irf1 reporter) > 40 µM (inactive); (JAK2V617F) > 40 µM (inactive).

Regarding `Cc1ccc(O)c(NC(=O)COc2ccccc2C)c1`, the IC50 (JAK2V617F) was > 40 µM (inactive).

`Nc1nc(CCl)nc(Nc2ccc3ccccc3c2)n1`: the IC50 runs as follows: (Ba/F3, irf1 reporter) 7.46 µM; (HEL, irf1 reporter) 0.958 µM.

On to `COc1cccc(F)c1C(C[N+](=O)[O-])c1c(N)n(C)c(=O)n(C)c1=O` (configuration not stated), for which the IC50 reads like this: (Ba/F3, irf1 reporter) 5.77 µM; (HEL, irf1 reporter) 9.37 µM.

With `CCCn1c(CN(C)Cc2ccccc2)nc2c1c(=O)n(C)c(=O)n2C`, the IC50 (Ba/F3, irf1 reporter) was 6.43 µM and the IC50 (HEL, irf1 reporter) was > 40 µM (inactive).

With `Nc1nc(N)c2nc(-c3ccccc3)c(N)nc2n1`, the IC50 runs as follows: (Ba/F3, irf1 reporter) > 40 µM (inactive); (HEL, irf1 reporter) > 40 µM (inactive).

On to `CC(C)[C@@H](CO)Nc1nc(Nc2cccc(Cl)c2)c2ncn(C(C)C)c2n1`, for which the 50% inhibitory concentration (IC50) is, setting by setting: (Ba/F3, irf1 reporter) 0.84 µM; (HEL, irf1 reporter) 1.13 µM; (JAK2V617F) 0.91 µM.

As for `Cc1cccc(NC(=O)COc2cccc(C)c2)c1`, where the note is “JAK2V617F”, the IC50 is > 40 µM (inactive).

In the case of `O=C(CSc1nnnn1-c1ccc(F)cc1)c1ccc(O)c(O)c1`, the IC50 (Ba/F3, irf1 reporter) was 12.4 µM and the IC50 (HEL, irf1 reporter) is 16.5 µM.

As to `O=C1C=CC(=O)N1CCNc1ncc(C(F)(F)F)cc1Cl`, the IC50 is 0.699 µM (Ba/F3, irf1 reporter) and 9.81 µM (HEL, irf1 reporter).

On to `COc1cc2ncnc(NC(C)C)c2cc1OC`, for which the IC50 is, setting by setting: (HEL, irf1 reporter) > 40 µM (inactive); (JAK2V617F) > 40 µM (inactive).

Turning to `O=c1oc2ccc(Cl)cc2nc1/C=C(\O)c1ccco1`, the IC50 is 5.55 µM (Ba/F3, irf1 reporter) and 4.75 µM (HEL, irf1 reporter).

For the molecule `COc1ccc(N2CCc3c(C)nc4c(OC)cc(OC)cc4c32)c(OC)c1`, the IC50 (Ba/F3, irf1 reporter) is 7.67 µM.

Turning to `Cc1ccc(O)c(NC(=O)COc2ccc(I)cc2)c1`, the IC50 (JAK2V617F) was 0.0268 µM.

For the molecule `Cc1ccc2nc(C)cc(Nc3ccc([N+](=O)[O-])cc3)c2c1`, the IC50 is 3.43 µM (Ba/F3, irf1 reporter) and 5.98 µM (HEL, irf1 reporter).

On to `COC(=O)/C=C/c1ccc(OC(=O)OC)c(OC(=O)OC)c1`, for which the IC50 runs as follows: (Ba/F3, irf1 reporter) 12.6 µM; (HEL, irf1 reporter) 27.7 µM.

In the case of `CN(c1ccccc1)S(=O)(=O)c1cccc(C(=O)NCCc2ccc(O)c(O)c2)c1`, the IC50 by setting is: (Ba/F3, irf1 reporter) 3.02 µM; (HEL, irf1 reporter) 2.97 µM.

Take `Oc1ccccc1OCCOc1ccccc1OCCOc1ccccc1O`: the IC50 reads like this: (Ba/F3, irf1 reporter) 6.74 µM; (HEL, irf1 reporter) 15.9 µM.

`O=C(Nc1cccc(NC(=O)c2cccs2)c1)c1ccc([N+](=O)[O-])o1`: the 50% inhibitory concentration (IC50) runs as follows: (Ba/F3, irf1 reporter) 4.5 µM; (HEL, irf1 reporter) 3.31 µM.

As for `CCC(C)Nc1ncnc2cc(OC)c(OC)cc12` (configuration not stated), the IC50 (HEL, irf1 reporter) is > 40 µM (inactive) and the IC50 (JAK2V617F) was 1.79 µM.

As for `CC(C)c1cc(C=C(C#N)C(=O)NCCCc2ccccc2)cc(C(C)C)c1O`, the IC50 by setting is: (Ba/F3, irf1 reporter) 0.54 µM; (HEL, irf1 reporter) 1.15 µM; (JAK2V617F) 3.97 µM.

Take `Cc1cccc(Nc2nc(N)nc(CCl)n2)c1C`: the IC50 was 14.9 µM (Ba/F3, irf1 reporter) and 1.17 µM (HEL, irf1 reporter).

Consider `N#CC(C#N)=Cc1cc(O)c(O)c(I)c1`, for which the IC50 reads like this: (Ba/F3, irf1 reporter) 5.01 µM; (HEL, irf1 reporter) 19.6 µM; (JAK2V617F) 8.82 µM.

As to `Cc1ccccc1CS(=O)(=O)c1nnc([C@H](Cc2ccccc2)NC(=O)OC(C)(C)C)o1`, the IC50 is 1.56 µM (Ba/F3, irf1 reporter) and 13.5 µM (HEL, irf1 reporter).

As to `CC(C)(C)c1cc(NC(=O)CCl)n(-c2ccccc2)n1`, the IC50 (Ba/F3, irf1 reporter) is 8.46 µM and the IC50 (HEL, irf1 reporter) is 9.96 µM.

Take `COc1cc2ncnc(Sc3ccc(C)cc3)c2cc1OC`: the IC50 by setting is: (HEL, irf1 reporter) 4.55 µM; (JAK2V617F) > 40 µM (inactive).

As for `COc1cc2ncnc(N[C@H](C)c3ccccc3)c2cc1OC`, the IC50 is, setting by setting: (HEL, irf1 reporter) 13.1 µM; (JAK2V617F) 3.18 µM.

For the molecule `O=C(C=Cc1ccccc1F)c1c(-c2ccccc2)c2ccccc2[nH]c1=O`, the half-inhibitory concentration (IC50) reads like this: (Ba/F3, irf1 reporter) 0.39 µM; (HEL, irf1 reporter) 0.39 µM; (JAK2V617F) 0.39 µM.

Turning to `Cc1cc(C)c(C(=O)/C=C/c2ccccc2F)c(=O)[nH]1`, the IC50 was 24 µM (Ba/F3, irf1 reporter); 1.17 µM (HEL, irf1 reporter); 0.71 µM (JAK2V617F).

Turning to `COc1ccc(-n2nnnc2SCC(=O)c2ccc(O)c(O)c2)cc1`, the IC50 was 6.22 µM (Ba/F3, irf1 reporter) and 25.5 µM (HEL, irf1 reporter).

In the case of `Cc1cccc(N(Cc2ccccc2)C(=O)CCl)c1`, the IC50 by setting is: (Ba/F3, irf1 reporter) 1.13 µM; (HEL, irf1 reporter) 4.76 µM.

As to `CCCC(=O)N(C1CC(C)C(C#N)(C#N)C1(C#N)C#N)N(C)C` (configuration not stated), the IC50 is 0.452 µM (Ba/F3, irf1 reporter) and 5.75 µM (HEL, irf1 reporter).

As to `Cc1[nH]c2ccccc2c(=O)c1C(=O)/C=C/c1ccccc1`, the IC50 was > 40 µM (inactive) (Ba/F3, irf1 reporter) and 3.98 µM (HEL, irf1 reporter).

As to `CC(C)C1C(C#N)=C(N)Oc2n[nH]c(-c3ccc4ccccc4c3)c21` (configuration not stated), the IC50 (Ba/F3, irf1 reporter) was 4.7 µM and the IC50 (HEL, irf1 reporter) was 16.1 µM.

These data come from PubChem BioAssay AID2165 (The Scripps Research Institute Molecular Screening Center, 2009).
